Reference: patent US20240239767A1 (AstraZeneca AB, priority 2022, published 2024)
One block for each molecule: values may come before it.

Experiments:
[1] = target: GSK3b (Glycogen synthase kinase-3 beta) (Homo sapiens, UniProt P49841); assay: Assay 6 - GSK3b assay (ThermoFisher, FRET Z-Lyte); type: biochemical; conditions: geometric mean; ATP Conc: 10.000 μM; read-out: Assay 6 (GSK3B FRET-Z-Lyte CR) GMean IC50 (μM) ATP Conc: 10.000
Method: This assay measures the activity of the compounds at GSK3b (Glycogen synthase kinase-3 beta).
The test compounds were screened in 1% DMSO (final) in the well. For 10-point titrations, 3-fold serial dilutions are conducted from the starting concentration of 10 μM.
• Bar-coded Corning, low volume NBS, black 384-well plate • 1. 2.5 μL—4× Test Compound or 100 nL 100× plus 2.4 μL kinase buffer • 2. 5 μL—2× Peptide/Kinase Mixture • 3. 2.5 μL—4× ATP Solution • 4. 30-second plate shake • 5. 60-minute Kinase Reaction incubation at room temperature • 6. 5 μL—Development Reagent Solution • 7. 30-second plate shake • 8. 60-minute Development Reaction incubation at room temperature • 9. Read on fluorescence plate reader and analyse the data
In step 2, the 2× GSK3β (GSK3 beta)/Ser/Thr (Glycogen synthase kinase-3 beta/Serine/Threonine) 09 mixture is prepared in 50 mM HEPES (4-(2-hydroxyethyl)-1-piperazineethanesulfonic acid) pH 7.5, 0.01% BRIJ-35, 10 mM MgCl2, 1 mM EGTA (egtazic acid). The final 10 μL Kinase Reaction consists of 0.22-0.92 ng GSK3β (GSK3 beta) and 2 μM Ser/Thr 09 in 50 mM HEPES pH 7.5, 0.01% BRIJ-35, 10 mM MgCl2, 1 mM EGTA.
In step 3 the ATP Solution is diluted to a 4× working concentration in Kinase Buffer (50 mM HEPES pH 7.5, 0.01% BRIJ-35, 10 mM MgCl2, 1 mM EGTA).
In Step 6 the Development Reagent is diluted 1:512 in Development Buffer (10× Novel PKC Lipid Mix: 2 mg/mL Phosphatidyl Serine, 0.2 mg/mL DAG in 20 mM HEPES, pH 7.4, 0.3% CHAPS).
SelectScreen® Kinase Profiling Service uses XLfit from IDBS. The dose response curve is curve fit to model number 205 (sigmoidal dose-response model).

[2] = target: T1, potassium ion channel hERG (human Ether-á-go-go-Related Gene) (Homo sapiens, UniProt Q12809); assay: Assay 5 - hERG assay (SyncroPatch 384PE patch clamp, CHO cells); type: cell-based; conditions: geometric mean, CHO cells over-expressing hERG, read-out: Assay 5 (hERG Hu CHO IF EPh CR-Syncro) GMean IC50
T1 construct: expressed in transfected cells; host or cells: Chinese hamster ovary K1 (CHO)
Method: Assay 5—hERG Assay (Human Ether-á-go-go-Related Gene)
This assay (human Ether-á-go-go-Related Gene) measures activity of the compounds at the potassium ion channel hERG (human Ether-á-go-go-Related Gene).
Experiments were performed on the SyncroPatch 384PE high throughput patch clamp platform at room temperature and medium resistance chips with 4 patch holes per site. Chinese hamster ovary K1 (CHO) cell lines over-expressing the ion channel of choice (hERG) were used in assay-ready format and kept in liquid nitrogen or were used from live culture. Cells were either thawed and diluted in HBSS or were detached from flasks and resuspended in HBSS. HBSS comprised 140 mM NaCl, 4 mM KCl, 10 mM HEPES and 5 mM Glucose (pH 7.4). The internal patch clamp solution was KF 120 mM, KCl 20 mM, HEPES 10 mM, EGTA 10 mM, and 25 μM Escin (pH 7.2). After the sealing process was complete, the external solution was exchanged for external patch clamp solution comprising NaCl 80 mM, KCl 4 mM, HEPES 10 mM, CaCl2 2 mM, MgCl2 1 mM, glucose 5 mM, and NMDG 60 mM (pH 7.4). All solutions were stored at room temperature, except Escin, which was stored at 4° C. All test compounds were dispensed in greiner-bio 384 well plates and tested in a 6 point cumulative assay (final DMSO concentration 0.33%). Only wells that passed previously agreed acceptance criteria for this platform were used in this analysis (30 MegaOhm seal resistance, Z prime>0.4 and current size>0.2 nA).

PCSK9 = PCSK9 (Homo sapiens, UniProt Q8NBP7, G670E/V474I); assay: biochemical
Sequence of PCSK9 (Q8NBP7 with tags, fused parts or gaps V474I/G670E): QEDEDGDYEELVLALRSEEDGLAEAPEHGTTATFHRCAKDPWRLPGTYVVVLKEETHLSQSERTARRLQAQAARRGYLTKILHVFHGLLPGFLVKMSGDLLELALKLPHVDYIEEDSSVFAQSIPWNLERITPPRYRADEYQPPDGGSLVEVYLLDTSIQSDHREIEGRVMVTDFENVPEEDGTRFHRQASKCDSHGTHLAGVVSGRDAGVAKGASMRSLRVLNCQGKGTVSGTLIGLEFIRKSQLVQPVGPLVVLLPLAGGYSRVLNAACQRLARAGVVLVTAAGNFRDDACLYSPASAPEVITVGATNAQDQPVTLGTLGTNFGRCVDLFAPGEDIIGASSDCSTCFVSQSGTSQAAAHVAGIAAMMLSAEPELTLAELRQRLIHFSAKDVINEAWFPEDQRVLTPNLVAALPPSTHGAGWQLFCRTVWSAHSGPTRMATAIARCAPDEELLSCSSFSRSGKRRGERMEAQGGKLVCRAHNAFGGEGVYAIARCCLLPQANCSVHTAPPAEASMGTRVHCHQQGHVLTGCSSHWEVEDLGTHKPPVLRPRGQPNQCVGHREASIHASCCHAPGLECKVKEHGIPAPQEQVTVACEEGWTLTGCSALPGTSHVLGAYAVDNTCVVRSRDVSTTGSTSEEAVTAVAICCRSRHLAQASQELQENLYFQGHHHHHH

T1 sequence (Q12809 whole entry): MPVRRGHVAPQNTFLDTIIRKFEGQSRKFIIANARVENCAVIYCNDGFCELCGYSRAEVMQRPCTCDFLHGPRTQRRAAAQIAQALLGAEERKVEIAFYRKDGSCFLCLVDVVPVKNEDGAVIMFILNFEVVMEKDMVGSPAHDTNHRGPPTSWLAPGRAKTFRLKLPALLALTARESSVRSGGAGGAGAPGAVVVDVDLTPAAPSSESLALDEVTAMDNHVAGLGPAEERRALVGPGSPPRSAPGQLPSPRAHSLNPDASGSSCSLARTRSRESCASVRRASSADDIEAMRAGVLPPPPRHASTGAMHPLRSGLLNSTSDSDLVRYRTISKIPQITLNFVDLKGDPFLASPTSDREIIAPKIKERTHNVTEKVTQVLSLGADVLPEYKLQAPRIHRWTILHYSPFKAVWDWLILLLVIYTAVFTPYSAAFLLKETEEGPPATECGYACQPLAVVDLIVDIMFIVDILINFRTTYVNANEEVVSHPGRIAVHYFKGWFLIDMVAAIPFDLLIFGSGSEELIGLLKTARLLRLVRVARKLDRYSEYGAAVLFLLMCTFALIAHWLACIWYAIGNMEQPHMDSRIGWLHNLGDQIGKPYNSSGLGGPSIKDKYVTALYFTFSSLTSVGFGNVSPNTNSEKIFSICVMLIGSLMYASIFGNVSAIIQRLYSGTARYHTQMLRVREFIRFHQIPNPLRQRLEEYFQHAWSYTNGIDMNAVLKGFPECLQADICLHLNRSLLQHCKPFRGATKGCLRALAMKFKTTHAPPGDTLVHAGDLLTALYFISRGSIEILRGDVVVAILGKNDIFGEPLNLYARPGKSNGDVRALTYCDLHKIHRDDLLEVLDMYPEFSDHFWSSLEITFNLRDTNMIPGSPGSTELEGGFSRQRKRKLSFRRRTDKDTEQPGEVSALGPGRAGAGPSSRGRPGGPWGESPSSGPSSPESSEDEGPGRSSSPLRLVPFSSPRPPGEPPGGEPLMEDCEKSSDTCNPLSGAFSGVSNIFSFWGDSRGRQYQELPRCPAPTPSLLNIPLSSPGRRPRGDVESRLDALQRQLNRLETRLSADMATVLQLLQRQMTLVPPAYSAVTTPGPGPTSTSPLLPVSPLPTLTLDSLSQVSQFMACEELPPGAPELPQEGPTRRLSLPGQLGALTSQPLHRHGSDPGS
Sequence of GSK3b (Glycogen synthase kinase-3 beta) (P49841 whole entry): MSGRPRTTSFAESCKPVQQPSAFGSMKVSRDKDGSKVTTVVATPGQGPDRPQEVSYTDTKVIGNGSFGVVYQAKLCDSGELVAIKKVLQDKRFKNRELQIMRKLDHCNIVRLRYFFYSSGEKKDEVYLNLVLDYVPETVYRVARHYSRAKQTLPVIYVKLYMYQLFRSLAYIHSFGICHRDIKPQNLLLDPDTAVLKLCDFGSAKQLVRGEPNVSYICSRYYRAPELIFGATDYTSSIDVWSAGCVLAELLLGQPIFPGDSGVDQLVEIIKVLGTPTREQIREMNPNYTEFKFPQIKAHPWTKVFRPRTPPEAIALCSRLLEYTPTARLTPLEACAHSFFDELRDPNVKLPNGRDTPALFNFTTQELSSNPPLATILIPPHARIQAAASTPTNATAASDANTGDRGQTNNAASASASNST

Structure (SMILES): O=c1ccccn1-c1ccc(N[C@H]2CC[C@H](Nc3nc4ccc(Br)cc4o3)C2)nc1 [Example 3, 6′-(((1S,3S)-3-((6-Bromobenzo[d]oxazol-2-yl)amino)cyclopentyl)amino)-2H-[1,3′-bipyridin]-2-one]
- IC50 [1]: > 10 µM
- IC50 [2]: 4.2 µM
- IC50 (PCSK9): 0.0082 µM

Structure (SMILES): O=c1ccccn1-c1ccc(N[C@H]2CC[C@H](Nc3nc4cc(C5CC5)cnc4[nH]3)C2)nc1 [Example 55, 6′-(((1S,3S)-3-((6-Cyclopropyl-3H-imidazo[4,5-b]pyridin-2-yl)amino)cyclopentyl)amino)-2H-[1,3′-bipyridin]-2-one]
- IC50 [1]: 1.77 µM
- IC50 [2]: > 40 µM
- IC50 (PCSK9): 0.0026 µM

Structure (SMILES): N#Cc1ccc2sc(N[C@H]3CC[C@H](Nc4ccc(-n5ccccc5=O)cn4)C3)nc2c1 [Example 9, 2-(((1S,3S)-3-((2-Oxo-2H-[1,3′-bipyridin]-6′-yl)amino)cyclopentyl)amino)benzo[d]thiazole-5-carbonitrile]
- IC50 [1]: 1.51 µM
- IC50 [2]: 3.56 µM
- IC50 (PCSK9): 0.0179 µM

Structure (SMILES): CP(C)(=O)c1cnc2[nH]c(N[C@H]3CC[C@H](Nc4ccc(-n5ccccc5=O)cn4)C3)nc2c1 [Example 58, 6′-(((1S,3S)-3-((6-(Dimethylphosphoryl)-3H-imidazo[4,5-b]pyridin-2-yl)amino)cyclopentyl)amino)-2H-[1,3′-bipyridin]-2-one]
- IC50 [2]: > 40 µM
- IC50 (PCSK9): 0.22 µM

Structure (SMILES): Fc1cccc(OC(F)(F)F)c1-c1ccc(N[C@H]2CC[C@H](Nc3nc4cccnc4[nH]3)C2)nc1 [Example 70, (1S,3S)—N^1-(5-(2-Fluoro-6-(trifluoromethoxy)phenyl)pyridin-2-yl)-N^3-(3H-imidazo[4,5-b]pyridin-2-yl)cyclopentane-1,3-diamine]
- IC50 [1]: > 10 µM
- IC50 (PCSK9): 0.0244 µM

Structure (SMILES): Fc1cccc(OC(F)F)c1-c1ccc(N[C@H]2CC[C@H](Nc3nc4cccnc4[nH]3)C2)nc1 [Example 32, (1S,3S)—N^1-(5-(2-(Difluoromethoxy)-6-fluorophenyl)pyridin-2-yl)-N^3-(3H-imidazo[4,5-b]pyridin-2-yl)cyclopentane-1,3-diamine]
- IC50 [1]: > 10 µM
- IC50 [2]: 2.22 µM
- IC50 (PCSK9): 0.021 µM

Structure (SMILES): O=c1ccccn1-c1ccc(N[C@H]2CC[C@H](Nc3nc4ccccc4s3)C2)nc1 [Example 7, 6′-(((1S,3S)-3-(Benzo[d]thiazol-2-ylamino)cyclopentyl)amino)-2H-[1,3′-bipyridin]-2-one]
- IC50 [1]: > 10 µM
- IC50 [2]: 12.6 µM
- IC50 (PCSK9): 0.324 µM

Structure (SMILES): O=c1ccccn1-c1ccc(N[C@H]2CC[C@H](Nc3nc4cc(CO)cnc4s3)C2)nc1 [Compound 88]
- IC50 [1]: > 10 µM
- IC50 [2]: > 40.1 µM
- IC50 (PCSK9): 0.0099 µM

Structure (SMILES): Cc1ncc(-c2ccc(=O)n(-c3ccc(N[C@H]4CC[C@H](Nc5nc6cccnc6[nH]5)C4)nc3)c2)cn1 [Example 53, 6′-(((1S,3S)-3-((3H-Imidazo[4,5-b]pyridin-2-yl)amino)cyclopentyl)amino)-5-(2-methylpyrimidin-5-yl)-2H-[1,3′-bipyridin]-2-one]
- IC50 [1]: 3.86 µM
- IC50 [2]: > 40 µM
- IC50 (PCSK9): 0.019 µM

Structure (SMILES): Fc1cccnc1-c1ccc(N[C@H]2CC[C@H](Nc3nc4cccnc4[nH]3)C2)nc1 [Example 30, (1S,3S)—N^1-(3-Fluoro-[2,3′-bipyridin]-6′-yl)-N^3-(3H-imidazo[4,5-b]pyridin-2-yl)cyclopentane-1,3-diamine]
- IC50 [1]: > 10 µM
- IC50 [2]: 3.15 µM
- IC50 (PCSK9): 0.0345 µM

Structure (SMILES): COc1ccnc2[nH]c(N[C@H]3CC[C@H](Nc4ccc(-n5ccccc5=O)cn4)C3)nc12 [Example 27, 6′-(((1S,3S)-3-((7-Methoxy-3H-imidazo[4,5-b]pyridin-2-yl)amino)cyclopentyl)amino)-2H-[1,3′-bipyridin]-2-one]
- IC50 [1]: 2.49 µM
- IC50 [2]: > 40 µM
- IC50 (PCSK9): 0.049 µM

Structure (SMILES): O=c1ccccn1-c1ccc(N[C@H]2CC[C@H](Nc3nc4ccc(Br)cc4s3)C2)nc1 [Example 6, 6′-(((1S,3S)-3-((6-Bromobenzo[d]thiazol-2-yl)amino)cyclopentyl)amino)-2H-[1,3′-bipyridin]-2-one]
- IC50 [1]: > 10 µM
- IC50 [2]: 2.64 µM
- IC50 (PCSK9): 2.73 µM

Structure (SMILES): O=c1cccnn1-c1cnc(N[C@H]2CC[C@H](Nc3nc4cccnc4[nH]3)C2)nc1 [Example 31, 2-(2-(((1S,3S)-3-((3H-Imidazo[4,5-b]pyridin-2-yl)amino)cyclopentyl)amino)pyrimidin-5-yl)pyridazin-3(2H)-one]
- IC50 [1]: > 10 µM
- IC50 [2]: > 40.1 µM
- IC50 (PCSK9): 0.0251 µM

Structure (SMILES): Cn1cccc(-c2cnc(N[C@H]3CC[C@H](Nc4nc5cccnc5[nH]4)C3)cn2)c1=O [Example 75, 3-(5-(((1S,3S)-3-((3H-Imidazo[4,5-b]pyridin-2-yl)amino)cyclopentyl)amino)pyrazin-2-yl)-1-methylpyridin-2(1H)-one]
- IC50 [1]: > 10 µM
- IC50 [2]: > 40 µM
- IC50 (PCSK9): 0.0168 µM

Structure (SMILES): Cc1ccc2nc(N[C@H]3CC[C@H](Nc4ccc(-n5ccccc5=O)cn4)C3)sc2c1 [Example 8, 6′-(((1S,3S)-3-((6-Methylbenzo[d]thiazol-2-yl)amino)cyclopentyl)amino)-2H-[1,3′-bipyridin]-2-one]
- IC50 [1]: > 10 µM
- IC50 [2]: 6.32 µM
- IC50 (PCSK9): 2.08 µM

Structure (SMILES): O=c1ccccn1-c1ccc(N[C@H]2CC[C@H](Nc3nc4ccccc4o3)C2)nc1 [Example 1, 6′-(((1S,3S)-3-(Benzo[d]oxazol-2-ylamino)cyclopentyl)amino)-2H-[1,3′-bipyridin]-2-one]
- IC50 [1]: > 10 µM
- IC50 [2]: > 40 µM
- IC50 (PCSK9): 0.0343 µM

- IC50 [1]: > 10 µM
Structure (SMILES): Cn1c(=O)n(-c2ccc(N[C@H]3CC[C@H](Nc4nc5cccnc5[nH]4)C3)nc2)c2ncccc21 [Example 45, 3-(6-(((1S,3S)-3-((3H-Imidazo[4,5-b]pyridin-2-yl)amino)cyclopentyl)amino)pyridin-3-yl)-1-methyl-1,3-dihydro-2H-imidazo[4,5-b]pyridin-2-one]
- IC50 [2]: > 40 µM

Structure (SMILES): O=c1ccccn1-c1ccc(N[C@H]2CC[C@H](Nc3nc4ccc(OC(F)F)cc4o3)C2)nc1 [Example 85, 6′-(((1S,3S)-3-((6-(Difluoromethoxy)benzo[d]oxazol-2-yl)amino)cyclopentyl)amino)-2H-[1,3′-bipyridin]-2-one]
- IC50 (PCSK9): 0.0146 µM

Structure (SMILES): COc1ccccc1-c1ccc(N[C@H]2CC[C@H](Nc3nc4cccnc4[nH]3)C2)nc1 [Example 66, (1S,3S)—N^1-(3H-Imidazo[4,5-b]pyridin-2-yl)-N^3-(5-(2-methoxyphenyl)pyridin-2-yl)cyclopentane-1,3-diamine]
- IC50 [1]: > 10 µM
- IC50 [2]: 1.94 µM
- IC50 (PCSK9): 0.166 µM

- IC50 [1]: > 10 µM
Structure (SMILES): Fc1cccc(F)c1-c1ccc(N[C@H]2CC[C@H](Nc3nc4cccnc4[nH]3)C2)nc1 [Example 68, (1S,3S)—N^1-(5-(2,6-Difluorophenyl)pyridin-2-yl)-N^3-(3H-imidazo[4,5-b]pyridin-2-yl)cyclopentane-1,3-diamine]
- IC50 [2]: 6.55 µM

- IC50 [1]: > 10 µM
Structure (SMILES): O=c1ccc2ccccc2n1-c1ccc(N[C@H]2CC[C@H](Nc3nc4cccnc4[nH]3)C2)nc1 [Example 33, 1-(6-(((1S,3S)-3-((3H-Imidazo[4,5-b]pyridin-2-yl)amino)cyclopentyl)amino)pyridin-3-yl)quinolin-2(1H)-one]
- IC50 [2]: > 40 µM

Structure (SMILES): O=C1CN(c2ccc(N[C@H]3CC[C@H](Nc4nc5cccnc5[nH]4)C3)nc2)C(=O)N1 [Example 65, 1-(6-(((1S,3S)-3-((3H-Imidazo[4,5-b]pyridin-2-yl)amino)cyclopentyl)amino)pyridin-3-yl)imidazolidine-2,4-dione]
- IC50 [1]: 8.19 µM
- IC50 [2]: > 40 µM
- IC50 (PCSK9): 0.0078 µM
